Laboratory results reported in patent US20220304942A1, “TREATMENT OF OBESITY AND RELATED CONDITIONS” (University of Greenwich, priority 2019, published 2022).

What was measured:
[1] = test system: male, wild-type C57BL/6 mice; test: Short term (four-week) dosing of 2,3-butanediol in drinking water to wild-type mice; type: in vivo; conditions: 28 days
Protocol: 2,3-butanediol was then administered over a four-week dosing period to wild-type mice. The 2,3-butanediol was delivered to male, wild-type C57BL/6 mice in drinking water, from 13 to 17 weeks of age. Dose delivery estimation was based on mouse average water consumption. Groups of male mice were either untreated, treated with 60, 250 or 600 mg/kg 2,3-butanediol in their drinking water. Water was changed twice weekly. Weights of mice and food intake were recorded. Urine was collected on day 0 (age 13 weeks, pre-treatment) and at 28 days post-treatment (mice aged 17 weeks) and analysed for 2,3-butanediol.
Blood was collected on day 0 (age 13 weeks) and at 28 days post-treatment (mice aged 17 weeks). Plasma was isolated and analysed. At termination of experiment, epidydimal fat pads (EWAT) were weighed and expressed as EWAT:Body weight ratios, […]

[2] = test system: Sprague-Dawley rat adipocytes; conditions: cited from earlier work
WT mice = test: Longer term dosing of 2,3-butanediol to WT mice, with washout cohort; type: in vivo
Protocol: Male mice were dosed with 200 mg/kg/day 2,3-butanediol from age 8 weeks to age 29 weeks. Mice were housed 4 to a cage. […], treatment was removed from one cohort, called the ‘washout 6 weeks’. Treatment continued in one cohort, called ‘treatment throughout’. Urine collected 1 week following removal of 2,3-butanediol confirmed the absence of 2,3-butanediol in the washout cohorts. At the end of the experiment blood was collected and plasma isolated and analysed. Mice were culled, and final body weights and epidydimal fat deposits recorded.

[3] = 60, 250 or 600 mg/kg in drinking water
[4] = 250 and 600 mg/kg/day doses in drinking water
[5] = 200 mg/kg/day from age 8 weeks to age 29 weeks, male mice
[6] = 200 mg/kg/day from age 8 weeks, treatment removed at age 22 weeks, 6 week washout on water alone

With `CC(O)C(C)O` (stereo not drawn) [2,3-butanediol] the plasma cholesterol ([1]; 250 mg/kg/day dose in drinking water) was “significantly reduced”, the “Epididymal white adipose tissue (EWAT) to body weight ratios” value ([1]; 250 mg/kg/day dose in drinking water, mice aged 13 to 17 weeks) was “significantly reduced” and the plasma alanine aminotransferase [1, 3] was “No changes”. The plasma alkaline phosphatase [1, 3] was “No changes”, the plasma aspartate aminotransferase [1, 3] was “No changes” and the “Plasma free fatty acids” value [1, 4] was “significantly reduced”. The Plasma lactate dehydrogenase [1, 4] was “significantly reduced”, the Plasma triglycerides [1, 4] was “significantly reduced” and the “14C-glucose incorporation into triglyceride glycerol” value ([2]; at higher concentrations) was “inhibitor”. For the same molecule, the “14C-glucose incorporation into triglyceride fatty acid” value [2] was “potent inhibitor”, the “fat (EWAT/body weight)” value (WT mice; [5]) was “significant reductions” and the plasma cholesterol (WT mice; [5]) was “significant reductions”. For the same molecule, the “treatment effect on fat (EWAT/body weight) after washout” value (WT mice; [6]) was “persistent”, the “treatment effect on plasma cholesterol after washout” value (WT mice; [6]) was “persistent” and the “2,3-butanediol in urine after removal of treatment” value (WT mice; urine collected 1 week following removal of 2,3-butanediol, washout cohorts) was “absence”.
